Results published in US20240252650A1, “LIPID COMPOUNDS AND LIPID NANOPARTICLE COMPOSITIONS” (SUZHOU ABOGEN BIOSCIENCES CO., LTD., priority 2021, published 2024).

How the values were obtained:
[1] = Encapsulation efficiency of lipid nanoparticles (Quant-it Ribogreen RNA quantification assay); format: physicochemical; conditions: LNP: cationic lipid/DSPC/cholesterol/PEG-lipid 50:10:38.5:1.5, mRNA; table of Example 15
Protocol: (§1) Briefly, a cationic lipid provided herein, DSPC, cholesterol, and PEG-lipid were solubilized in ethanol at a molar ratio of 50:10:38.5:1.5, and mRNA were diluted in 10 to 50 mM citrate buffer, pH=4. The LNPs were prepared at a total lipid to mRNA weight ratio of approximately 10:1 to 30:1 by mixing the ethanolic lipid solution with the aqueous mRNA solution at a volume ratio of 1:3 using a microfluidic apparatus, total flow rate ranging from 9-30 mL/min. Ethanol were thereby removed and replaced by DPBS using dialysis. Finally, the lipid nanoparticles were filtered through a 0.2 μm sterile filter.
(§2) Lipid nanoparticle size were determined by dynamic light scattering using a Malvern Zetasizer Nano ZS (Malvern UK) using a 173° backscatter detection mode. The encapsulation efficiency of lipid nanoparticles were determined using a Quant-it Ribogreen RNA quantification assay kit (Thermo Fisher Scientific, UK) according to the manufacturer's instructions.

[2] = Lipid nanoparticle size and polydispersity by dynamic light scattering (Malvern Zetasizer Nano ZS); format: physicochemical; conditions: LNP: cationic lipid/DSPC/cholesterol/PEG-lipid 50:10:38.5:1.5, mRNA; table of Example 15
Protocol: as §1, §2

[3] = Apparent pKa of LNP formulations by TNS fluorescence assay; format: physicochemical; conditions: LNP cationic lipid/DSPC/cholesterol/DMG-PEG 50/10/38.5/1.5 mol %, table of Example 15
Protocol: As reported in literature, the apparent pKa of LNP formulations correlates with the delivery efficiency of LNPs for nucleic acids in vivo. The apparent pKa of each formulation was determined using an assay based on fluorescence of 2-(p-toluidino)-6-napthalene sulfonic acid (TNS). LNP formulations comprising of cationic lipid/DSPC/cholesterol/DMG-PEG (50/10/38.5/1.5 mol %) in PBS were prepared as described above. TNS was prepared as a 300 uM stock solution in distilled water. LNP formulations were diluted to 0.1 mg/ml total lipid in 3 mL of buffered solutions containing 50 mM sodium citrate, 50 mM sodium phosphate, 50 mM sodium borate, and 30 mM sodium chloride where the pH ranged from 3 to 9. An aliquot of the TNS solution was added to give a final concentration of 0.1 mg/ml and following vortex mixing fluorescence intensity was measured at room temperature in a Molecular Devices Spectramax iD3 spectrometer using excitation and mission wavelengths of 325 nm and 435 nm. A sigmoidal best fit analysis was applied to the fluorescence data and the pKa value was measured as the pH giving rise to half-maximal fluorescent intensity.

female Balb/c mice = assay: Animal study: LNPs encapsulating luciferase mRNA, tail vein injection, organ bioluminescence imaging (IVIS Spectrum CT); format: in vivo; conditions: luciferase mRNA LNP, 0.25 mg/kg tail vein; for luciferase expression in bone marrow (in words): 6 h; for bone marrow* Avg Radiance: bone marrow at 6 h; for brain* Avg Radiance: dissected brain at 6 h; for heart* Avg Radiance: dissected heart at 6 h; for kidney* Avg Radiance: dissected kidney at 6 h; for liver* Avg Radiance: dissected liver at 6 h; for lung* Avg Radiance: dissected lung at 6 h; for spleen* Avg Radiance: dissected spleen at 6 h
Protocol: Lipid nanoparticles comprising certain compounds provided herein encapsulating luciferase encoding (luciferase) mRNA were systemically administered to 6-8 week old female Balb/c mice (Charles River Lab, ZheJiang) at 0.25 mg/kg dose by tail vein injection, and mice blood were sampled at specific time points (e.g., 6 hours) post administration. Optical imaging was performed using the IVIS Spectrum CT device (PerkinElmer Inc., Paris, France). The luminescence level was evaluated by an ROI applied to the injection site zone (Living Image software, PerkinElmer Inc., Paris, France).
Radiance of heart, liver, spleen, lung, kidney, brain and bone marrow were taken at 6 h. Dissected organs were placed on a black sheet and imaged with IVIS Spectrum CT (PerkinElmer, Hopkinton, MA). To quantify bioluminescence emission signal, identical regions of interest (ROI) were positioned to encircle each organ region, the imaging signal was quantitated as average radiance (photons/s/cm2/steradian).

## CCCCCCCC(=O)OCC(CCCC(=O)OCC(COC(=O)CCCCCCC)COC(=O)CCCCCCN(CCO)C1CCC1)COC(=O)CCCCCCC (centres unmarked) [Compound 78]
[1]
  Encapsulation Efficiency: 87.30%
[2]
  polydispersity: 0.043
  size (nm): 132 nm
[3]
  Apparant Pka: 6.864
Female Balb/c mice
  luciferase expression in bone marrow (in words): mild expression
  bone marrow* Avg Radiance: 0.51 E+04 p/s/cm^2/sr
  brain* Avg Radiance: 3.25 E+04 p/s/cm^2/sr
  heart* Avg Radiance: 3.65 E+04 p/s/cm^2/sr
  kidney* Avg Radiance: 7.88 E+04 p/s/cm^2/sr
  liver* Avg Radiance: 11.41 E+06 p/s/cm^2/sr
  lung* Avg Radiance: 3.83 E+04 p/s/cm^2/sr
  spleen* Avg Radiance: 2.07 E+06 p/s/cm^2/sr

## CCCCCCCCCCCCCCCCCC(=O)OCC(COC(=O)CCCC(COC(=O)CCCCCCC)COC(=O)CCCCCCC)OC(=O)CCCCN(CCO)C1CCC1 (centres unmarked) [Compound 114]
[1]
  Encapsulation Efficiency: 87.34%
[2]
  polydispersity: 0.206
  size (nm): 89.95 nm
[3]
  Apparant Pka: 7.194
Female Balb/c mice
  luciferase expression in bone marrow (in words): mild expression
  bone marrow* Avg Radiance: 0.2 E+04 p/s/cm^2/sr
  brain* Avg Radiance: 6.01 E+04 p/s/cm^2/sr
  heart* Avg Radiance: 5.49 E+04 p/s/cm^2/sr
  kidney* Avg Radiance: 7.63 E+04 p/s/cm^2/sr
  liver* Avg Radiance: 21.27 E+06 p/s/cm^2/sr
  lung* Avg Radiance: 6.22 E+04 p/s/cm^2/sr
  spleen* Avg Radiance: 2.7 E+06 p/s/cm^2/sr

## CCCCC/C=C\C/C=C\CCCCCCCC(=O)OCC(COC(=O)CCC(OCCCCCCCC)OCCCCCCCC)COC(=O)OCCCN(CCO)C1CCC1 (centres unmarked) [Compound 115]
[1]
  Encapsulation Efficiency: 91.21%
[2]
  polydispersity: 0.033
  size (nm): 71.59 nm
[3]
  Apparant Pka: 6.499
Female Balb/c mice
  bone marrow* Avg Radiance: −0.66 E+04 p/s/cm^2/sr
  brain* Avg Radiance: 14.59 E+04 p/s/cm^2/sr
  heart* Avg Radiance: 13.74 E+04 p/s/cm^2/sr
  kidney* Avg Radiance: 27.83 E+04 p/s/cm^2/sr
  liver* Avg Radiance: 44.21 E+06 p/s/cm^2/sr
  lung* Avg Radiance: 7.01 E+04 p/s/cm^2/sr
  spleen* Avg Radiance: 1.06 E+06 p/s/cm^2/sr

## CCCCC/C=C\C/C=C\CCCCCCCC(=O)OCC(COC(=O)CCCCN(CCO)C1CCC1)COC(=O)CCC(OCCCCCCCC)OCCCCCCCC (centres unmarked) [Compound 116]
[1]
  Encapsulation Efficiency: 92.40%
[2]
  polydispersity: 0.049
  size (nm): 78.48 nm
[3]
  Apparant Pka: 6.881
Female Balb/c mice
  bone marrow* Avg Radiance: −0.16 E+04 p/s/cm^2/sr
  brain* Avg Radiance: 13.52 E+04 p/s/cm^2/sr
  heart* Avg Radiance: 12.65 E+04 p/s/cm^2/sr
  kidney* Avg Radiance: 28.62 E+04 p/s/cm^2/sr
  liver* Avg Radiance: 40.56 E+06 p/s/cm^2/sr
  lung* Avg Radiance: 17.29 E+04 p/s/cm^2/sr
  spleen* Avg Radiance: 1.38 E+06 p/s/cm^2/sr

## CCCCC/C=C\C/C=C\CCCCCCCC(=O)OCC(COC(=O)CCCCCCC/C=C\C/C=C\CCCCC)COC(=O)CCCCCCCN(CCO)C1CCC1 [Compound 124]
[1]
  Encapsulation Efficiency: 90.85%
[2]
  polydispersity: 0.078
  size (nm): 90.89 nm
[3]
  Apparant Pka: 7.1
Female Balb/c mice
  luciferase expression in bone marrow (in words): mild expression
  bone marrow* Avg Radiance: 2.2 E+04 p/s/cm^2/sr
  brain* Avg Radiance: 16.34 E+04 p/s/cm^2/sr
  heart* Avg Radiance: 32.73 E+04 p/s/cm^2/sr
  kidney* Avg Radiance: 34.36 E+04 p/s/cm^2/sr
  liver* Avg Radiance: 47.09 E+06 p/s/cm^2/sr
  lung* Avg Radiance: 16.04 E+04 p/s/cm^2/sr
  spleen* Avg Radiance: 11.21 E+06 p/s/cm^2/sr

## CCCCC/C=C\C/C=C\CCCCCCCC(=O)OCC(COC(=O)CCCCN(CCOCCO)C1CCC1)COC(=O)CCCC(COC(=O)CCCCCCC)COC(=O)CCCCCCC (centres unmarked) [Compound 125]
[1]
  Encapsulation Efficiency: 87.71%
[2]
  polydispersity: 0.025
  size (nm): 83.81 nm
[3]
  Apparant Pka: 6.863
Female Balb/c mice
  bone marrow* Avg Radiance: −0.94 E+04 p/s/cm^2/sr
  brain* Avg Radiance: 4.61 E+04 p/s/cm^2/sr
  heart* Avg Radiance: 5.27 E+04 p/s/cm^2/sr
  kidney* Avg Radiance: 8.4 E+04 p/s/cm^2/sr
  liver* Avg Radiance: 16.61 E+06 p/s/cm^2/sr
  lung* Avg Radiance: 7.67 E+04 p/s/cm^2/sr
  spleen* Avg Radiance: 2.24 E+06 p/s/cm^2/sr

## CCCCC/C=C\C/C=C\CCCCCCCC(=O)OCC(COC(=O)CCC(OCCCCCCCC)OCCCCCCCC)COC(=O)OCCCN(CCO)C1CCCCC1 (centres unmarked) [Compound 126]
[1]
  Encapsulation Efficiency: 91.87%
[2]
  polydispersity: 0.039
  size (nm): 71.38 nm
[3]
  Apparant Pka: 6.154
Female Balb/c mice
  bone marrow* Avg Radiance: −1.44 E+04 p/s/cm^2/sr
  brain* Avg Radiance: 10.48 E+04 p/s/cm^2/sr
  heart* Avg Radiance: 23.71 E+04 p/s/cm^2/sr
  kidney* Avg Radiance: 29.29 E+04 p/s/cm^2/sr
  liver* Avg Radiance: 54.3 E+06 p/s/cm^2/sr
  lung* Avg Radiance: 15.58 E+04 p/s/cm^2/sr
  spleen* Avg Radiance: 0.73 E+06 p/s/cm^2/sr

## CCCCC/C=C\C/C=C\CCCCCCCC(=O)OCC(COC(=O)CCCC(COC(=O)CCCCCCC)COC(=O)CCCCCCC)COC(=O)OCCCN(CCOCCO)C1CCC1 (centres unmarked) [Compound 127]
[1]
  Encapsulation Efficiency: 85.39%
[2]
  polydispersity: 0.037
  size (nm): 87.99 nm
[3]
  Apparant Pka: 6.398
Female Balb/c mice
  luciferase expression in bone marrow (in words): mild expression
  bone marrow* Avg Radiance: 0.95 E+04 p/s/cm^2/sr
  brain* Avg Radiance: 3.91 E+04 p/s/cm^2/sr
  heart* Avg Radiance: 4.33 E+04 p/s/cm^2/sr
  kidney* Avg Radiance: 10.77 E+04 p/s/cm^2/sr
  liver* Avg Radiance: 13.01 E+06 p/s/cm^2/sr
  lung* Avg Radiance: 9.38 E+04 p/s/cm^2/sr
  spleen* Avg Radiance: 4.76 E+06 p/s/cm^2/sr

## CCCCC/C=C\C/C=C\CCCCCCCC(=O)OCC(COC(=O)CCCCN(CCCCCCCO)C1CCC1)COC(=O)CCCC(COC(=O)CCCCCCC)COC(=O)CCCCCCC (centres unmarked) [Compound 129]
[1]
  Encapsulation Efficiency: 87.05%
[2]
  polydispersity: 0.033
  size (nm): 138.5 nm
[3]
  Apparant Pka: 6.477
Female Balb/c mice
  luciferase expression in bone marrow (in words): mild expression
  bone marrow* Avg Radiance: 2.12 E+04 p/s/cm^2/sr
  brain* Avg Radiance: 12.49 E+04 p/s/cm^2/sr
  heart* Avg Radiance: 13.05 E+04 p/s/cm^2/sr
  kidney* Avg Radiance: 17.53 E+04 p/s/cm^2/sr
  liver* Avg Radiance: 30.05 E+06 p/s/cm^2/sr
  lung* Avg Radiance: 11 E+04 p/s/cm^2/sr
  spleen* Avg Radiance: 6.57 E+06 p/s/cm^2/sr
